pIC50: −log10 of the molar value. Structures can show the parent of a compound that is named as a salt.
Columns and labels:
[1] = tested on: A431 cells [human epidermoid carcinoma, overexpressing HER1 (EGFR, ErbB1)]; assay: In vitro tumor cell proliferation assay (Cell Titer-Glo luminescent cell viability), A431 cells; format: cell-based; details: A-431, 72 h, 72 hours of drug exposure, Cell Titer-Glo readout, read-out: IC50, anti-proliferative activity in A431 cells
Excerpt: (§1) The utility of the compounds of the present invention can be illustrated, for example, by their activity in vitro in the in vitro tumor cell proliferation assay described below. The link between activity in tumor cell proliferation assays in vitro and anti-tumor activity in the clinical setting has been very well established in the art.
(§2) The following assay is one of the methods by which compound activity relating to treatment of the disorders identified herein can be determined.
(§3) The tumor cell proliferation assay used to test the compounds of the present invention involves a readout called Cell Titer-Glow® Luminescent Cell Viability Assay developed by Promega® (Cunningham, B A “A Growing Issue: Cell Proliferation Assays, Modern kits ease quantification of cell growth” The Scientist 2001, 15(13), 26, and Crouch, S P et al., “The use of ATP bioluminescence as a measure of cell proliferation and cytotoxicity” Journal of Immunological Methods 1993, 160, 81-88), that measures inhibition of cell proliferation. Generation of a luminescent signal corresponds to the amount of ATP present, which is directly proportional to the number of metabolically active (proliferating) cells.
(§4) A431 cells [human epidermoid carcinoma, ATCC # […], overexpressing HER1 (EGFR, ErbB1)] and BT474 [human breast carcinoma, ATCC # CRL-1555, overexpressing HER2 (ErbB2)] were plated at a density of 2.5×10^3 cells/well in 96 well black-clear bottom tissue culture plates in RPMI media with 10% Fetal Bovine Serum and incubated at 37° C. Twenty-four hours later, test compounds are added at a final concentration range from as high 100 μm to as low 64 pM depend on the activities of the tested compounds in serial dilutions at a final DMSO concentration of 0.1%. Cells were incubated for 72 hours at 37° C. in complete growth media after addition of the test compound. After 72 hours of drug exposure, the plates were equilibrated to room temperature for approximately 30 min. Then, using a Promega Cell Titer Glo Luminescent® assay kit, lysis buffer containing 100 microliters of the enzyme luciferase and its substrate, luciferin mixture, was added to each well. The plates were mixed for 2 min on orbital shaker to ensure cell lysis and incubated for 10 min at room temperature to stabilize luminescence signal. The samples were read on VICTOR 2 using Luminescence protocol, and analyzed with Analyze5 software to generate IC50 values.

[2] = tested on: BT474 [human breast carcinoma, overexpressing HER2 (ErbB2)]; assay: In vitro tumor cell proliferation assay (Cell Titer-Glo luminescent cell viability), BT474 cells; format: cell-based; details: BT-474, 72 h, 72 hours of drug exposure, Cell Titer-Glo readout, read-out: IC50, anti-proliferative activity in BT474 cells
Excerpt: as §1, §2, §3, §4

Row | SMILES | pIC50 [1] | pIC50 [2]
1 | Oc1ccc2c(c1)sc1ncnc(Nc3ccc(OCc4ccccn4)c(Cl)c3)c12 [Example 110, 4-{[3-chloro-4-(pyridin-2-ylmethoxy)phenyl]amino}[1] benzothieno[2,3-d]pyrimidin-7-ol] | ≥ 4.30 | ≥ 5.30
2 | CN1CCN(C(=O)Cc2ccc3c(c2)sc2ncnc(Nc4ccc5c(cnn5Cc5cccc(F)c5)c4)c23)CC1 [Example 124, N-[1-(3-fluorobenzyl)-1H-indazol-5-yl]-7-[2-(4-methylpiperazin-1-yl)-2-oxoethyl][1]benzothieno[2,3-d] pyrimidin-4-amine] | ≥ 5.30 | ≥ 6.30
3 | O=C(Cc1ccc2c(c1)sc1ncnc(Nc3ccc(OCc4ccccn4)c(Cl)c3)c12)NCCO [Example 106, 2(4-{[3-chloro-4-(pyridin-2-ylmethoxy)phenyl]amino}[1]benzothieno[2,3-d]pyrimidin-7-yl)-N-(2-hydroxyethyl)acetamide] | ≥ 4.30 | ≥ 5.30
4 | OC[C@@H](O)c1ccc2c(c1)sc1ncnc(Nc3ccc(OCc4ccccn4)c(Cl)c3)c12 [Example 74, (1S)-1-(4-{[3-chloro-4-(pyridin-2-ylmethoxy)phenyl]amino}[1]benzothieno[2,3-d]pyrimidin-7-yl)ethane-1,2-diol] | ≥ 4.30 | ≥ 6.30
5 | CN(C)CCNC(=O)Cc1ccc2c(c1)sc1ncnc(Nc3ccc(OCc4ccccn4)c(Cl)c3)c12 [Example 100, 2-(4-{[3-chloro-4-(pyridin-2-ylmethoxy)phenyl]amino}[1]benzothieno[2,3-d]pyrimidin-7-yl)-N-[(2-dimethylamino)ethyl]acetamide] | ≥ 4.30 | ≥ 6.30
6 | C=Cc1ccc2c(c1)sc1ncnc(Nc3ccc(OCc4ccccn4)c(Cl)c3)c12 [Example 72, N-[3-chloro-4-(pyridin-2-ylmethoxy)phenyl]-7-vinyl[1]benzothieno[2,3-d]pyrimidin-4-amine] | ≥ 4.30 | ≥ 5.30
7 | CN(C)[C@@H]1CCN(C(=O)Cc2ccc3c(c2)sc2ncnc(Nc4ccc(OCc5cscn5)c(Cl)c4)c23)C1 [Example 136, N-[3-chloro-4-(1,3-thiazol-4-ylmethoxy)phenyl]-7-{2-[(3R)-3-(dimethylamino)pyrrolidin-1-yl]-2-oxoethyl}[1]benzothieno[2,3-d] pyrimidin-4-amine] | ≥ 5.30 | ≥ 6.30
8 | O=C(Cc1ccc2c(c1)sc1ncnc(Nc3ccc(OCc4cccc(F)c4)c(Cl)c3)c12)NCC1CCCNC1 (stereo not drawn) [Example 33, 2-[4-({3-chloro-4-[(3-fluorobenzyl)oxy]phenyl}amino) [1]benzothieno[2,3-d]pyrimidin-7-yl]-N-(piperidin-3-ylmethyl) acetamide hydrochloride] | ≥ 4.30 | ≥ 6.30
9 | CCOC(=O)Cc1ccc2c(c1)sc1ncnc(Nc3ccc(OCc4cscn4)c(Cl)c3)c12 [Example 134, ethyl (4-{[3-chloro-4-(1,3-thiazol-4-ylmethoxy)phenyl]amino}[1]benzothieno[2,3-d]pyrimidin-7-yl)acetate] | ≥ 4.30 | ≥ 5.30
10 | COCCNCCc1ccc2c(c1)sc1ncnc(Nc3ccc(OCc4ccccn4)c(Cl)c3)c12 [Example 86, N-[3-chloro-4-(pyridin-2-ylmethoxy)phenyl]-7-{2-[(2-methoxyethyl)amino]ethyl}[1] benzothieno[2,3-d]pyrimidin-4-amine trifluoroacetate] | ≥ 5.30 | ≥ 6.30
11 | NS(=O)(=O)OCCc1ccc2c(c1)sc1ncnc(Nc3ccc(OCc4ccccn4)c(Cl)c3)c12 [Example 109, 2-(4-{[3-chloro-4-(pyridin-2-ylmethoxy)phenyl]amino}[1]benzothieno[2,3-d]pyrimidin-7-yl)ethyl sulfamate] | ≥ 5.30 | ≥ 6.30
12 | Fc1cccc(COc2ccc(Nc3ncnc4sc5cc(CCN6CCSCC6)ccc5c34)cc2Cl)c1 [Example 15, N-{3-chloro-4-[(3-fluorobenzyl)oxy]phenyl}-7-(2-thiomorpholin-4-ylethyl)[1] benzothieno[2,3-d]pyrimidin-4-amine] | ≥ 5.30 | ≥ 6.30
13 | CCN1CCN(C(=O)C(O)C(O)c2ccc3c(c2)sc2ncnc(Nc4ccc(OCc5cccc(F)c5)c(Cl)c4)c23)CC1 (stereo not drawn) [Example 56, 1-[4-({3-chloro-4-[(3-fluorobenzyl)oxy]phenyl}amino)[1]benzothieno[2,3-d]pyrimidin-7-yl]-3-(4-ethylpiperazin-1-yl)-3-oxopropane-1,2-diol] | ≥ 4.30 | ≥ 5.30
14 | CCN1CCN(CCNC(=O)Cc2ccc3c(c2)sc2ncnc(Nc4ccc(OCc5cscn5)c(Cl)c4)c23)CC1 [Example 146, 2-(4-{[3-chloro-4-(1,3-thiazol-4-ylmethoxy)phenyl]amino}[1]benzothieno[2,3-d]pyrimidin-7-yl)-N-[2-(4-ethylpiperazin-1-yl)ethyl] acetamide] | ≥ 4.30 | ≥ 6.30
15 | CS(=O)(=O)CCNC(=O)Cc1ccc2c(c1)sc1ncnc(Nc3ccc4c(cnn4Cc4cccc(F)c4)c3)c12 [Example 122, 2-(4-{[1-(3-fluorobenzyl)-1H-indazol-5-yl]amino}[1]benzothieno[2,3-d]pyrimidin-7-yl)-N-[2-(methylsulfonyl)ethyl] acetamide] | ≥ 5.30 | ≥ 6.30
16 | CS(=O)(=O)CCNCCc1ccc2c(c1)sc1ncnc(Nc3ccc(OCc4ccccn4)c(Cl)c3)c12 [Example 85, N-[3-chloro-4-(pyridin-2-ylmethoxy)phenyl]-7-(2-{[2-(methylsulfonyl)ethyl]amino}ethyl) [1]benzothieno[2,3-d]pyrimidin-4-amine trifluoroacetate] | ≥ 5.30 | ≥ 6.30

Other lines, results leading:

Row | pIC50 [1] | pIC50 [2] | SMILES
17 | ≥ 5.30 | ≥ 6.30 | COCCN1CCN(CCc2ccc3c(c2)sc2ncnc(Nc4ccc(OCc5cccc(F)c5)c(Cl)c4)c23)CC1 [Example 12, N-{3-chloro-4-[(3-fluorobenzyl)oxy]phenyl}-7-{2-[4-(2-methoxyethyl)piperazin-1-yl]ethyl}[1]benzothieno [2,3-d]pyrimidin-4-amine]
18 | ≥ 5.30 | ≥ 6.30 | OCCNCCc1ccc2c(c1)sc1ncnc(Nc3ccc(OCc4cccc(F)c4)c(Cl)c3)c12 [Example 22, 2-({2-[4-({3-chloro-4-[(3-fluorobenzyl)oxy]phenyl}amino) [1]benzothieno [2,3-d]pyrimidin-7-yl]ethyl}amino)ethanol]
19 | ≥ 5.30 | ≥ 5.30 | COCCN(CCOC)C(=O)Cc1ccc2c(c1)sc1ncnc(Nc3ccc(OCc4ccccn4)c(Cl)c3)c12 [Example 101, 2-(4-{[3-chloro-4-(pyridin-2-ylmethoxy)phenyl]amino}[1]benzothieno[2,3-d]pyrimidin-7-yl)-N,N-bis (2-methoxyethyl)acetamide]
20 | ≥ 5.30 | ≥ 6.30 | OCC(O)c1ccc2c(c1)sc1ncnc(Nc3ccc4c(cnn4Cc4cccc(F)c4)c3)c12 (stereo not drawn) [Example 115, 1-(4-{[1-(3-fluorobenzyl)-1H-indazol-5-yl]amino}[1]benzothieno [2,3-d]pyrimidin-7-yl)ethane-1,2-diol]
21 | ≥ 5.30 | ≥ 6.30 | O=C(Cc1ccc2c(c1)sc1ncnc(Nc3ccc(OCc4cccc(F)c4)c(Cl)c3)c12)NCCOCCO [Example 29, 2-[4-({3-chloro-4-[(3-fluorobenzyl)oxy]phenyl}amino)[1]benzothieno[2,3-d]pyrimidin-7-yl]-N-[2-(2-hydroxyethoxy)ethyl] acetamide]
22 | ≥ 5.30 | ≥ 5.30 | OCCc1ccc2c(c1)sc1ncnc(Nc3ccc(OCc4cccc(F)c4)c(Cl)c3)c12 [Example 2, 2-[4-({3-chloro-4-[(3-fluorobenzyl)oxy]phenyl}amino)[1]benzothieno[2,3-d]pyrimidin-7-yl]ethanol]
23 | ≥ 5.30 | ≥ 6.30 | Fc1cccc(COc2ccc(Nc3ncnc4sc5cc(OCCCN6CCOCC6)ccc5c34)cc2Cl)c1 [Example 39, N-{3-chloro-4-[(3-fluorobenzyl)oxy]phenyl}-7-(3-morpholin-4-ylpropoxy)[1] benzothieno[2,3-d]pyrimidin-4-amine]
24 | ≥ 5.30 | ≥ 6.30 | O=C(Cc1ccc2c(c1)sc1ncnc(Nc3ccc(OCc4cccc(F)c4)c(Cl)c3)c12)NCCN1CCOCC1 [Example 30, 2-[4-({3-chloro-4-[(3-fluorobenzyl)oxy]phenyl}amino)[1]benzothieno[2,3-d]pyrimidin-7-yl]-N-(2-morpholin-4-ylethyl)acetamide]
